Assay results published in patent US11028052B2, “Compounds useful as modulators of TRPM8” (Firmenich Incorporated, priority 2013, dated 2021).
pEC50: −log10 of the molar value.

Legend:
hTRPM8 [1] = target: T1, hTRPM8 (Homo sapiens, UniProt Q7Z2W7); assay: hTRPM8 cell line agonist assay (section 2.1); type: cell-based; conditions: for EC50 Ratio (WS3): relative to WS3 screened on the same day, greater than one = more potent than WS3; for pEC50: cell line stably expressing hTRPM8
T1 construct: expressed in transfected cells
Experimental: A cell line which stably expresses hTRPM8 was used in biological assays in association with testing the present compounds with cool-tasting or -feeling properties. Typical compound concentrations tested were 100 μM, 50 μM, 10 μM, 1 μM, and 0.5 μM. The present compounds have shown activity as agonists of hTRPM8. Assay results for compounds are illustrated in the table below. EC50 in micromoles (μM) is presented as well as the activity relative to WS3 (an established, commercially available cooling agent). […] A value of 1 indicates the compound is equipotent to WS3 in the assay. […] It is noted that Compounds 2.A1 to 2.S6 in the table below are the Examples described in this application. For example, Compound 2.B 1 is Example 2.2.

panelists [2] = assay: Sensory studies, cool line scale vs WS-3 (section 2.2); type: in vivo, human; conditions: for Sensory Results: compound concentration compared in cooling with a known concentration of WS-3
Description: The results are presented relative to a known concentration of WS-3. A more specific detailed example of the sensory evaluation of selected examples are also presented below. […]

hTRPM8 [3] = target: T1, hTRPM8; assay: hTRPM8 cell based agonist assay (section 3.1); conditions: for pEC50: mammalian cell line stably expressing TRPM8; for EC50 Ratio (WS3): relative to WS3
Description: The present compounds are useful as modulators of TRPM8. The activity of TRPM8 can be readily monitored in cell based assays using fluorescent calcium-sensitive dyes, membrane potential dyes, or sodium-sensitive dyes. The activity of TRPM8 can also be monitored with electrophysiological set-ups, such as patch-clamping and two-electrode voltage clamping. A mammalian cell line derivative which stably expresses TRPM8 was used in biological assays in association with testing the present compounds with cool-tasting or -feeling properties (Servant et al. US 2007/0259354 A1 and references cited therein). Typical compound concentrations tested were 50 μM, 20 μM, 10 μM, 5 μM, 2 μM, 1 μM, 0.5 μM, 0.1 μM, 0.05 μM, 0.01 μM, and other concentration points in between. The present compounds have shown strong activity as agonists of hTRPM8. Assay results for compounds are illustrated in Table 1 below. Specifically, the Compounds listed in Table 3.1, i.e., Compounds 3.A1 to Compounds 3.D1 are the specific compounds as described above.

panelists [4] = assay: Sensory study, cooling line scale vs WS-3 (section 1.2); type: in vivo, human; conditions: for Average Cooling: 45 μM WS-3 control, 15 point line scale
Experimental: Three typical sensory studies are described below each followed by a table summarizing sensory results of selected compounds of the invention (Tables 1.2 to 1.4).
(§1) All samples made with Low Sodium Buffer (LSB) pH ˜7.1 and contain 0.1% ethanol.
(§2) Compounds are rated on a 15 point line scale where 45 μM WS-3 (N-Ethyl-p-menthane-3-carboxamide) is ranked as a 5 in cool intensity. In most cases our compounds are tested to determine at what concentration the cooling intensity is equivalent to 45 μM WS-3. In each test, the panelist is presented with a 0 μM control sample, a 45 μM WS-3 control sample and the experimental compound sample and asked to rate the cooling intensity of each sample. Panelists are also asked to rate bitterness. In the table below there was no significant bitterness detected unless otherwise noted. Also, in the table below, n represents the number of tests completed for a given experiment (#panelists×#repetitions).

panelists [5] = assay: Sensory study, cool line scale test vs WS-3 (section 3.2); type: in vivo, human; conditions: for Average Cooling: Table 3.2, n = 30
Experimental: Two typical sensory studies are described below each followed by a table summarizing sensory results of selected compounds of the invention (Tables 3.2 and 3.3).
as §1
as §2, with “The test is a cool line scale test with timed 30 seconds interval. Compounds” for “Compounds”, “intensity. The present compound was” for “intensity. In most cases our compounds are”, “panelist was” for “panelist is”, “Panelists were” for “Panelists are”

T1 sequence (Q7Z2W7 whole entry): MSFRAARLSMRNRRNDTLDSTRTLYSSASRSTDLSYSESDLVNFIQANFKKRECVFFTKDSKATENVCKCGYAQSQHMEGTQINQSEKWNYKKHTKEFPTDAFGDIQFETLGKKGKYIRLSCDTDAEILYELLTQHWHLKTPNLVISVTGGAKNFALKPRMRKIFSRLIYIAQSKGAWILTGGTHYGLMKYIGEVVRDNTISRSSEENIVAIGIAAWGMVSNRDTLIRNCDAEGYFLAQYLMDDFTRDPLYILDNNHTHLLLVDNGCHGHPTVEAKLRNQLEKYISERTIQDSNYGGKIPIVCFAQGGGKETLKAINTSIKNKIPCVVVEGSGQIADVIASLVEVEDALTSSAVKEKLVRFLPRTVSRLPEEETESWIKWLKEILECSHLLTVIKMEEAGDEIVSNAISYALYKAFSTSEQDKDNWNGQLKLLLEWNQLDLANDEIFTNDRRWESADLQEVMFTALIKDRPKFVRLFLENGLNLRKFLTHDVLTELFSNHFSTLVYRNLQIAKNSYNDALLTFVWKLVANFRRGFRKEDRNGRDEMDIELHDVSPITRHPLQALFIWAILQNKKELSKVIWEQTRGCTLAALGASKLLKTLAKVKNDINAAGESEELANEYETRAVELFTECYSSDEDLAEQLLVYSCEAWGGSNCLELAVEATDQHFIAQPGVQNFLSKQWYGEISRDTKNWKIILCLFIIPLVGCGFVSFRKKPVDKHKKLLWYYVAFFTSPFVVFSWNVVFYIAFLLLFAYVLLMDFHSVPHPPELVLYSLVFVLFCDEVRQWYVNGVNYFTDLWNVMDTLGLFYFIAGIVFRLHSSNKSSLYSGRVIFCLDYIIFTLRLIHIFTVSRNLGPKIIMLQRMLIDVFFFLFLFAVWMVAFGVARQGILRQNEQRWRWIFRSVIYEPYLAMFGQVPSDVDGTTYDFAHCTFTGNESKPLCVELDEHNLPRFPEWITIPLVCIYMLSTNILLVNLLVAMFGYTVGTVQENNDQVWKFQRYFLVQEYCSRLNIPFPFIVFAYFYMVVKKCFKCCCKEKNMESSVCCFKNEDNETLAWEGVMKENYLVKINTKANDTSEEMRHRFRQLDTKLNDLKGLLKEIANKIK

Row | Structure (SMILES) | EC50 Ratio (WS3) (hTRPM8 [1]) | pEC50 (hTRPM8 [1]) | pEC50 (hTRPM8 [3]) | EC50 Ratio (WS3) (hTRPM8 [3]) | other results
1 | CN1C(=O)N(CC(=O)c2cccc(O)c2)C(=O)C1(C)C1CC2CCC1C2 (single isomer, unassigned) [Compound 2.B3] | 2810.1 |  |  |  | 
2 | CN1C(=O)N(CC(=O)c2ccc[nH]2)C(=O)C1(C)C1CCCCC1 (centres unmarked) [Compound 2.J3] | 32.1 | 6.78 |  |  | Sensory Results (panelists [2]): 15 uM~45 uM WS-3
3 | CC(C(=O)N(C)CC(=O)c1ccccc1)c1ccccc1 (centres unmarked) [Example 3.D6] |  |  | 5.63 | 3.9 | 
4 | CC1=NN(CC(=O)c2ccccc2)C(=O)C1(C)C1CCCCC1 (centres unmarked) [Example A1] |  |  |  |  | Cooling compared with 0 μM and 45 μM WS-3 (panel conclusion) (panelists [4]; 5 μM): significantly more cooling than 0 μM WS-3 (p<0.05) and not significantly different in cooling than 45 μM WS-3
5 | CC(C(=O)N(C)CC(=O)c1cccs1)C1CCCCC1 (centres unmarked) [Example 3.A10] |  |  | 7.23 | 62.5 | 
6 | CC(C)(C(=O)NCC(=O)c1ccc(O)cc1)C1CCCCC1 [Example 3.C5] |  |  | 6.30 | 9.4 | 
7 | CN1C(=O)N(CC(=O)c2ccc(O)cc2)C(=O)C1(C)C1CCCCC1 (centres unmarked) [Compound 2.D3] | 33.4 | 6.91 |  |  | 
8 | CN1CC(C)(C2=CCCCC2)C(=O)N(CC(=O)c2ccccc2)C1=O (centres unmarked) [Compound 2.A1] | 54.6 | 6.87 |  |  | Sensory Results (panelists [2]): 10 uM < 45 uM WS-3
9 | CN1CC(C)(C2CCCCC2)C(=O)N(CC(=O)c2cccnc2)C1=O (centres unmarked) [Example 2.2, 5-cyclohexyl-1,5-dimethyl-3-(2-oxo-2-(pyridin-3-yl)ethyl)dihydropyrimidine-2,4(1H,3H)-dione] | 13.5 | 6.43 |  |  | 
10 | CC1CCCC1C1(C)C(=O)N(CC(=O)c2ccc[nH]2)C(=O)N1C (centres unmarked) [Compound 2.N3] | 24.1 | 6.69 |  |  | Sensory Results (panelists [2]): 15 uM < 45 uM WS-3
11 | C[C@H](C(=O)NNC(=O)c1ccccc1)C1CCCCC1 [Example 3.G1] |  |  | 5.20 | 1.0 | 
12 | CC(C(=O)N(C)CC(=O)c1cccc(O)c1)C1CCCCC1 (centres unmarked) [Example 3.A1] |  |  | 7.89 | 581.6 | 
13 | Cc1cccc(C(C)C(=O)N(C)CC(=O)c2ccccc2)c1 (centres unmarked) [Example 3.E6] |  |  | 5.35 | 2.5 | 
14 | CN1C(=O)N(CC(=O)c2cccnc2)C(=O)C1(C)CCc1ccccc1 (centres unmarked) [Compound 2.U5] | 0.9 | 5.43 |  |  | 
15 | C[C@H](C(=O)N(C)CC(=O)c1ccsc1)C1CCCCC1 [Example 3.A4] |  |  | 7.39 | 132.4 | 
16 | CN1C(=O)N(CC(=O)c2ccccc2)C(=O)C1(C)C1CC2CCC1CC2 (single isomer, unassigned) [Compound 2.A3] | 73.1 | 7.00 |  |  | 
17 | CN1C(=O)N(CC(=O)c2ccccc2)C(=O)C1(C)C1=CCCCC1 (centres unmarked) [Compound 2.F3] | 44.0 | 6.86 |  |  | 
18 | CCN1C(=O)N(CC(=O)c2ccccc2)C(=O)C1(C)C1CCCCC1 (centres unmarked) [Compound 2.P3] | 38.1 | 6.64 |  |  | Sensory Results (panelists [2]): 15 uM < 45 uM WS-3
19 | CN1C(=O)N(CC(=O)c2cccnc2)C(=O)C1(C)C1CCCCC1 (centres unmarked) [Compound 2.K3] | 30.1 | 6.76 |  |  | Sensory Results (panelists [2]): 30 uM~45 uM WS-3

Row | Structure (SMILES) | EC50 Ratio (WS3) (hTRPM8 [1]) | pEC50 (hTRPM8 [1]) | pEC50 (hTRPM8 [3]) | EC50 Ratio (WS3) (hTRPM8 [3]) | other results
20 | CC(C)(C(=O)NCC(=O)c1cc(O)cc(O)c1)C1CCCCC1 [Example 3.A9] |  |  | 7.06 | 66.5 | 
21 | C[C@H](C(=O)N(C)CC(=O)c1ccccc1)C1CCCCC1 [Example 3.2, (S)-2-Cyclohexyl-N-methyl-N-(2-oxo-2-phenylethyl)propanamide] |  |  |  |  | Cooling compared with 0 μM and 45 μM WS-3 (panel conclusion) (panelists [5]; 5 μM): significantly more cooling than 0 μM WS-3 (p<0.05) and not significantly different in cooling than 45 μM WS-3; Average Cooling (panelists [5]; 5 μM, 15 point line scale): 4.0
22 | CC(C(=O)N(C)CC(=O)c1cc(O)cc(O)c1)C1CCCCC1 (centres unmarked) [Example 3.A3] |  |  | 7.55 | 221.2 | 
23 | CN1C(=O)N(CC(=O)c2ccccc2)C(=O)C1(C)C1CC2CCC1CC2 (centres unmarked) [Compound 2.I3] | 33.8 | 6.79 |  |  | 
24 | CN(CC(=O)c1ccc(F)cc1)C(=O)C(C)(C)C1CCCCC1 [Example 3.E7] |  |  | 5.67 | 1.9 | 
25 | CC(C)(C(=O)NCC(=O)c1cccnc1)C1CCCCC1 [Example 3.B4] |  |  | 6.64 | 26.5 | 
26 | CN1C(=O)N(CC(=O)c2ccccc2)C(=O)C1(C)C1CC2C=CC1CC2 (centres unmarked) [Compound 2.E3] | 53.5 | 6.90 |  |  | 
27 | CC(C)(C(=O)NCC(O)c1ccccc1)C1CCCCC1 (centres unmarked) [Example 3.F8] |  |  | 5.38 | 1.1 | 
28 | CN1C(=O)N(CC(=O)c2cccc(O)c2)C(=O)C1(C)C1CC2CCC1C2 (centres unmarked) [Compound 2.C3] | 49.1 | 7.00 |  |  | 
29 | CN1C(=O)N(CC(=O)c2ccc[nH]2)C(=O)C1(C)C1CC2CCC1C2 (single isomer, unassigned) [Compound 2.O3] | 21.6 | 6.65 |  |  | 
30 | CC(C(=O)N(C)CC(=O)c1ccccc1)C1CCCCC1 (centres unmarked) [Example 3.A2] |  |  | 8.00 | 577.8 | 
31 | CC(C)(C(=O)NCC(=O)c1cccc(F)c1)C1CCCCC1 [Example 3.B7] |  |  | 6.59 | 18.6 | 
32 | CCNC(=O)C1CC(C)CCC1C(C)C (centres unmarked) [WS-3, N-Ethyl-p-menthane-3-carboxamide, reference compound] |  |  |  |  | Cool intensity compared with LSB (line scale conclusion) (panelists [2]; 60 μM in LSB at pH 7.1): significantly higher in cool intensity than LSB; Ave Cool (panelists [2]; Table 2.1, 60 μM WS-3, n = 10): 3.7; Average Cooling (panelists [4]; Table 1.2, n = 30): 4.4; Average Cooling (panelists [4]; Table 1.3, n = 28): 5.4; Average Cooling (panelists [4]; Table 1.4, n = 28): 4.1; Average Cooling (panelists [5]; 45 μM WS-3 control): 4.5
33 | CC1CCCC1C1(C)C(=O)N(CC(=O)c2cccc(O)c2)C(=O)N1C (mixture of isomers) [Compound 2.G3] | 32.6 | 6.84 |  |  | Sensory Results (panelists [2]): 15 uM < 45 uM WS-3
34 | CC(C(=O)NCC(=O)c1ccccc1)C1CC2CCC1C2 (centres unmarked) [Example 3.F9] |  |  | 5.47 | 1.0 | 
35 | CN1C(=O)N(CC(=O)c2cccnc2)C(=O)C(C)(C2=CCCCC2)C1=O (centres unmarked) |  |  |  |  | melting point: 109 to 111 °C
36 | CN1CC(C)(C2=CCCCC2)CN(CC(=O)c2ccccc2)C1=O (centres unmarked) [Compound 2.F1] | 1.6 | 5.54 |  |  | 
37 | CC1CCCC1C1(C)C(=O)N(CC(=O)c2ccccc2)C(=O)N1C (mixture of isomers) [Compound 2.L3] | 25.9 | 6.74 |  |  | 
38 | CN1C(=O)N(CC(=O)c2ccccc2)C(=O)C(C)(C2=CCCCC2)C1=O (centres unmarked) [Compound 2.M3] | 240.6 | 6.72 |  |  | 
